Here are results for 5 compounds from patent publication US20090105327A1, “Dibenzocycloheptane compounds and pharmaceuticals containing these compounds” (Merckle GMBH, priority 2005, published 2009).

The target in one data set is activated p38α (Homo sapiens, UniProt Q16539). Description: Kinase assay (p38 MAP kinase assay), ATF2 phosphorylation ELISA. The following applies: 100 μM ATP, 10 ng activated p38α, ATF2 substrate; read-out: Inhibition of p 38 MAP kinase assay IC50. The format is biochemical. On the procedure:
Kinase Assay (p38 MAP Kinase Assay)
Microtiter plates were coated with 50 μl of ATF2 solution (20 μg/ml) at 37° C. for one hour. After washing with water three times, 50 μl of kinase mixture (50 mM tris-HCl 10 mM MgCl2, 10 mM β-glycerol phosphate, 10 μg/ml BSA, 1 mM DTT, 100 μM ATP, 100 μM Na3VO4, 10 ng of activated p38α) with or without inhibitor were put into the wells and incubated at 37° C. for 1 hour. After washing three times, the plates were incubated with […] at 37° C. for one hour. After washing again three times, a goat anti-rabbit IgG labeled with alkaline phosphatase was added at 37° C. for one hour (in order to retain the antibody phosphorylated protein-substrate complex). After washing three times, the alkaline phosphatase substrate solution (3 mM 4-NPP, 50 mM NaHCO3, 50 mM MgCl2, 100 μl/well) was added at 37° C. for 1.5 hours. […] The IC50 values are calculated.
In general terms: ELISA stands for enzyme-linked immunosorbent assay.

For a further data set, the system named is IL-1β. Description: tissue or blood. The following applies: Homo sapiens, 4 h, read-out: Inhibition of IL-1β (whole blood) IC50. On the procedure:
(§1) The compounds or compositions of the invention can be administered to a mammal (human or animal) in a dose of about 0.5 mg to 100 mg per kg of body weight per day. They can be given in a single dose or in a plurality of doses. […] Pharm. Pharm. Med. Chem. 333, Suppl. 1, 1-40, 2000.
(§2) In Vitro Test Method with Human Whole Blood
(§3) Samples of human potassium EDTA whole blood (400 μl each) are mixed with the test substance and preincubated at 37° C. in a CO2 incubator (5% CO2; 95% moisture-saturated air) for 15 min. The samples are then stimulated with 1 μg/ml LPS (E. coli 026:B6) in a CO2 incubator (5% CO2; 95% moisture-saturated air) at 37° C. for 4 hours. The reaction is stopped by placing the samples on ice, adding DPBS buffer and subsequently centrifuging at 1000.g for 15 min. The amount of IL-1β and TNFα in the plasma supernatant is then measured by means of an ELISA.

In a further data set the test system is TNF-α. Description: tissue or blood. The following applies: Homo sapiens, 4 h, read-out: Inhibition of TNF-α (whole blood) IC50. As to the method: as §1, §2, §3

pIC50: −log10 of the molar value.

A word on the pIC50: it is the IC50 on a negative log10 scale, so that one unit is a factor of ten. Usually melting point stands for the temperature of the solid-liquid transition.

activated p38α, sequence (Q16539 whole entry): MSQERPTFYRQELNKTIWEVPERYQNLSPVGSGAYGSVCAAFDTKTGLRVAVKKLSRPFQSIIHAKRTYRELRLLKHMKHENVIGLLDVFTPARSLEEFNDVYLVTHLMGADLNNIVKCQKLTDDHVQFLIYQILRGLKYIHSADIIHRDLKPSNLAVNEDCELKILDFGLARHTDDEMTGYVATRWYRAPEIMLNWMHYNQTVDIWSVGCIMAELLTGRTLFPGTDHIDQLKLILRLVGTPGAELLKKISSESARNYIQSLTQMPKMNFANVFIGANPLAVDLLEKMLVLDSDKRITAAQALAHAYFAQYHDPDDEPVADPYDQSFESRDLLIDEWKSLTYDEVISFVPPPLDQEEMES

`Nc1ccccc1Nc1ccc2c(c1)SCc1ccccc1C2=O` [Example 4, 3-(2-Aminoanilino)-6,11-dihydrodibenzo[b,e]thiepin-11-one]: the pIC50 on activated p38α is 5.96. Regarding `Nc1ccccc1Nc1ccc2c(c1)CCc1ccccc1C2=O` [Example 25, 2-(2-Aminophenylamino)-10,11-dihydrodibenzo[a,d]cycloheptan-5-one], the pIC50 is 5.74 in the data set on IL-1β and 5.64 with TNF-α. Consider `Nc1ccccc1Nc1ccc2c(c1)OCc1ccccc1C2=O` [Example 5, 3-(2-Aminoanilino)-6,11-dihydrodibenzo[b,e]oxepin-11-one], for which, at activated p38α, the pIC50 was 6.52. On to “3-(2-Amino-4-fluorophenylamino)-6,11-dihydrodibenzo[b,e]oxepin-11-one [Example 24]”, for which the pIC50 on activated p38α is 7.42. With `COc1ccccc1Nc1ccc2c(c1)CCc1ccccc1C2=O` [Example 28, 2-(2-Methoxyphenylamino)-10,11-dihydrodibenzo[a,d]cyclohepten-5-one], the melting point is 52.5 °C. In addition, at activated p38α, the pIC50 was 6.80.
